doi:10.1101/2023.07.31.551370, “A diversified, widespread microbial gene cluster encodes homologs of methyltransferases involved in methanogenesis” (bioRxiv, 2023)

Key:
[1] = molecular target: T1, ClMlp2; test: UV-visible spectroscopy, loss of methylcob(III)alamin absorbance at […] nm, steady-state kinetics; type: biochemical, Clostridium ljungdahlii; conditions: co-substrate methylcob(III)alamin (non-physiological methyl donor); strictly anoxic nitrogen atmosphere; reverse of the hypothesized physiological reaction; fit with substrate inhibition; substrate in
T1 construct: gene mlp2; recombinant ClMlp2

[2] = tested on: T1, ClMlp2; test: as above; type: biochemical, Clostridium ljungdahlii; conditions: co-substrate methylcob(III)alamin (non-physiological methyl donor); strictly anoxic nitrogen atmosphere; reverse of the hypothesized physiological reaction; fit with substrate inhibition; read-out: apparent KM

[SeH2] [selenide]
KI (selenide substrate inhibition constant) [1]: 3.83 mM | Km [2]: 79.8 µM
